Patent US20030194445A1, “Compositions and methods of use of peptides in combination with biocides and/or germicides” (priority 2001, published 2003)
Converted amounts (≈) assume the structure as drawn. Where a name gives a salt, the structure may show the parent alone. Read-outs that look alike come from different tables or passages of the source. *: point of attachment. Octanoyl = CCCCCCCC(=O)*

Tests used:
P. aeruginosa = experiment: MIC of biocide actives and formulations, microtiter growth assay
K. pneumoniae = experiment: as above
C. albicans ATCC 10231 [1] = test system: C. albicans ATCC 10231
E. coli ATCC 25922 [2] = test system: E. coli ATCC 25922
P. aeruginosa ATCC 10145 [3] = experiment: microbe, parasite or virus in culture; details: Pseudomonas aeruginosa, ATCC10145, read-out: Triclosan MIC
microorganisms = experiment: Triclosan plus sub-toxic levels of peptide on microbial growth; assay type: cell-based
Method: Effect of combinations of triclosan and sub-toxic levels of peptide on microbial growth is assessed. […] Thus, the potential use rate of triclosan as an antimicrobial is shown to be reduced.

K. pneumoniae ATCC 27736 [4] = test system: K. pneumoniae ATCC 27736
S. cerevisiae ATCC 9763 [5] = experiment: microbe, parasite or virus in culture; details: Saccharomyces cerevisiae, ATCC9763, read-out: Triclosan MIC
K. pneumoniae ATCC 27736 [6] = experiment: microbe, parasite or virus in culture; details: Klebsiella pneumoniae, ATCC27736, read-out: Triclosan MIC
[7] = test system: S. aureus ATCC 33591 (MRSA)
P. aeruginosa ATCC 10145 [8] = test system: P. aeruginosa ATCC 10145
[9] = test system: all organisms tested except P. aeruginosa; experiment: Triclosan plus sub-biocidal peptide, summary over organisms; assay type: cell-based
Description: Thus, the potential use rate of triclosan as an antimicrobial is reduced.

[10] = test system: S. aureus ATCC 33591 (MRSA); experiment: microbe, parasite or virus in culture; details: Staphylococcus aureus, read-out: Triclosan MIC
S. cerevisiae ATCC 9763 [11] = test system: S. cerevisiae ATCC 9763
E. coli ATCC 25922 [12] = experiment: microbe, parasite or virus in culture; details: Escherichia coli, ATCC25922, read-out: Triclosan MIC
C. albicans ATCC 10231 [13] = experiment: microbe, parasite or virus in culture; details: Candida albicans, ATCC10231, read-out: Triclosan MIC
[14] = test system: microbes such as Salmonella typhimurium and Clostridium botulinum; assay type: cell-based; details: food preservative use
E. coli = experiment: Peptide-containing textile fiber, MIC; assay type: cell-based, Escherichia coli; details: E. coli in LB media
Description: Peptide compositions comprising peptides of the present invention and at least one biocide or germicide may be applied by coating or spinning effective amounts of peptide onto or into the desired polymer. The peptides may be prepared in an aqueous solution to use as a coating solution or combined with a polymer. […] A peptide and polymer solution or mixture may be made and undergo casting or formation to the desired shaped article, fiber or film. The shaped article, fiber or film may then be quenched in water or methanol, allowed to air dry or dry under an appropriate atmosphere to prevent oxidative reactions.
The resulting solution may be placed into a microscale spinning apparatus and fiber is formed while wet with methanol. The antimicrobial activity of the peptides may be tested in tubes containing LB media innoculated with the peptide-containing fiber and E. coli growing at log phase (1×10^6 to 1×10^7 cells/ml). Aliquots can be taken from the culture tube at periodic intervals and absorbance readings at 600 nm (uv/vis) can be measured in a microcuvette.

[15] = P. aeruginosa, growth inhibited by >90%
[16] = K. pneumoniae, growth inhibited by >90%
[17] = triclosan MIC with octanoyl-R-NH-octyl at 4 ppm
[18] = triclosan MIC with octanoyl-RR-NH-octyl at 0.5 ppm

Q: For `O=CCCCC=O` [Aqucar, glutaraldehyde], which MIC (P. aeruginosa; Pseudomonas aeruginosa) is on record?
A: Its MIC is 500 µg/mL.

Q: What about the MIC (K. pneumoniae; Klebsiella pneumoniae) of the same compound?
A: The MIC was 250 µg/mL.

Q: How did the MIC (P. aeruginosa; Pseudomonas aeruginosa) turn out when `CCCCCCCCCCCCNC(=N)N` [DGH, dodecylguanidine hydrochloride] was run?
A: The MIC was 10 µg/mL.

Q: And the MIC (K. pneumoniae; Klebsiella pneumoniae)?
A: Its MIC is 2.5 µg/mL.

Q: For `N#CSCSC#N` [MBT, methylene bis(thiocyanate)], which MIC (P. aeruginosa; [15]) is on record?
A: The MIC was 0.6 µg/mL.

Q: What about the MIC (K. pneumoniae; [16]) of the same compound?
A: Its MIC is 0.6 µg/mL.

Q: `O=[N+]([O-])C(Br)(CO)CO` [Myacide, 2-bromo-2-nitropropane-1,3-diol] was tested. Which MIC (P. aeruginosa; Pseudomonas aeruginosa) did it give?
A: The MIC was 1.3 µg/mL.

Q: And the MIC (K. pneumoniae; Klebsiella pneumoniae)?
A: Its MIC is 10 µg/mL.

Q: What does the source list for `Oc1cc(Cl)ccc1Oc1ccc(Cl)cc1Cl` [Triclosan, 2,4,4′-trichloro-2′-hydroxydiphenylether]?
A: Triclosan plus constant [peptide] (C. albicans ATCC 10231 [1]; triclosan MIC with octanoyl-RR-NH-octyl at 2 ppm): 4 (2 ppm) μg/ml; Triclosan plus constant [peptide] (C. albicans ATCC 10231 [1]; triclosan MIC with octanoyl-RR-NH-octyl at 4 ppm): 2 (4 ppm) μg/ml; Triclosan plus constant [peptide] (E. coli ATCC 25922 [2]; [17]): <0.00003 (4 ppm) μg/ml; MIC (P. aeruginosa ATCC 10145 [3]): > 250 µg/mL; inhibitory effect of triclosan with a peptide of the invention in sub-toxic amounts (microorganisms): substantially increase; Triclosan plus constant [peptide] (K. pneumoniae ATCC 27736 [4]; [18]): 0.031 (0.5 ppm) μg/ml; Triclosan plus constant [peptide] (K. pneumoniae ATCC 27736 [4]; triclosan MIC with octanoyl-RR-NH-octyl at 1 ppm): 0.00003 (1 ppm) μg/ml; MIC (S. cerevisiae ATCC 9763 [5]): 4 µg/mL (≈ 13.8 µM); MIC (K. pneumoniae ATCC 27736 [6]): 0.061 µg/mL (≈ 0.211 µM); Triclosan plus constant [peptide] [7, 18]: 0.002 (0.5 ppm) μg/ml; Triclosan plus constant [peptide] (P. aeruginosa ATCC 10145 [8]; [17]): >250 (4 ppm) μg/ml; inhibitory effect of triclosan on addition of sub-biocidal amounts of peptide [9]: substantially increased; MIC [10]: 0.015 µg/mL (≈ 0.0518 µM); Triclosan plus constant [peptide] (S. cerevisiae ATCC 9763 [11]; triclosan MIC with octanoyl-R-NH-octyl at 2 ppm): 2 (2 ppm) μg/ml; MIC (E. coli ATCC 25922 [12]): 0.002 µg/mL (≈ 0.00691 µM); MIC (C. albicans ATCC 10231 [13]): 8 µg/mL (≈ 27.6 µM)

Q: What does the source list for `N#CC(Br)(Br)C(N)=O` [compound 7287, 2,2-dibromo-3-nitrilo propionamide]?
A: MIC (P. aeruginosa; [15]): 40.0 µg/mL; MIC (K. pneumoniae; [16]): 40.0 µg/mL

Q: Which results are given for `CCCCCCCCNC(=O)[C@H](CCCNC(=N)N)NC(=O)CCCCCCC` [octanoyl-R-NH-octyl, octanoyl-R—NH-octyl]?
A: Peptide MIC (E. coli ATCC 25922 [2]; ATCC 25922, 19 h): 8 µg/mL; Peptide MIC (P. aeruginosa ATCC 10145 [8]; ATCC 10145, 19 h): 8 µg/mL; Peptide MIC (S. cerevisiae ATCC 9763 [11]; ATCC 9763, 19 h): 8 µg/mL

Q: `CCCCCCCCNC(=O)[C@H](CCCNC(=N)N)NC(=O)[C@H](CCCNC(=N)N)NC(=O)CCCCCCC` [octanoyl-RR-NH-octyl, octanoyl-RR—NH-octyl] was tested. Which “Peptide MIC” value (C. albicans ATCC 10231 [1]; ATCC 10231, 19 h) did it give?
A: The value was 8 µg/mL.

Q: And the “Peptide MIC” value (K. pneumoniae ATCC 27736 [4]; ATCC 27736, 19 h)?
A: Its value is 4 µg/mL.

Q: What about the “Peptide MIC” value ([7]; ATCC 33591, 19 h) of the same compound?
A: Its value is 2 µg/mL.

Q: With “Acetyl-Arg-Trp-Arg-Trp-NH2 (Ac-RWRW-NH2)” as the compound, how does the MIC [14] read?
A: Its MIC is “≦31 μg/ml”.

Q: What about the MIC (E. coli) of the same compound?
A: The MIC was “≦31 μg/ml”.

Q: With Decanoyl-Arg-NH-decyl as the compound, how does the MIC [14] read?
A: The MIC was “≦8 μg/ml”.

Q: And the MIC (E. coli)?
A: Its MIC is “≦15 μg/ml”.

Q: For Nonanoyl-Arg-Arg-NH-nonyl, which MIC (E. coli) is on record?
A: The MIC was “≦2 μg/ml”.

Q: With Nonanoyl-Arg-NH-nonyl as the compound, how does the MIC [14] read?
A: The MIC was “≦4 μg/ml”.

Q: For Octanoyl-Arg-Ala-NH-octyl, which MIC [14] is on record?
A: The MIC was “≦15 μg/ml”.

Q: For Octanoyl-Arg-Arg-Arg-NH-octyl, which MIC (E. coli) is on record?
A: Its MIC is “≦8 μg/ml”.

Q: For Octanoyl-Arg-Cys-NH-octyl, which MIC [14] is on record?
A: Its MIC is “≦15 μg/ml”.

Q: Which MIC (E. coli) does the source give for “Octanoyl-Arg-Phe-Phe-Arg-NH-octyl (Octanoyl-RFFR-{NH‑octyl})” here?
A: The MIC was “≦4 μg/ml”.

Q: Octanoyl-Arg-Trp-NH2 was tested. Which MIC [14] did it give?
A: Its MIC is “≦15 μg/ml”.

Q: What about the MIC (E. coli) of the same compound?
A: The MIC was “≦15 μg/ml”.

Q: How did the MIC (E. coli) turn out when Octanoyl-Arg-Trp-Phe-NH2 was run?
A: Its MIC is “≦15 μg/ml”.

Q: For Octanoyl-Lys-Arg-NH-octyl, which MIC [14] is on record?
A: The MIC was “≦4 μg/ml”.

Q: “n-alkyl (C12-40%, C14-50%, C16-10%) dimethylbenzylammonium chloride [Maquat]” was tested. Which MIC (P. aeruginosa; [15]) did it give?
A: The MIC was 7.8 µg/mL.

Q: And the MIC (K. pneumoniae; [16])?
A: The MIC was 0.6 µg/mL.
